# According to publication PMC10714400, “Antimicrobial Peptide–Peptoid Hybrids with and without Membrane Disruption” (ACS Infectious Diseases, 2023):
# Where two headings read alike, the source gives them in different places. Where a SMILES comes first, the peptide text is derived from it. [ ]: non-standard residue; d: D form. Nleu = CC(C)CNCC(=O)O; Nlys = NCCCCNCC(=O)O
# Legend:
# S. maltophilia = tested on: S. maltophilia
# In short: (§1)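 MTT added (20–30 min, room temperature); MIC read by eye as lowest concentration inhibiting visible growth (yellow). Polymyxin B positive control from 16 μg/mL.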
# S. aureus Newman = conditions: Newman
# In short: as §1
# B. cenocepacia = conditions: pH 7.4
# In short: as §1
# P. aeruginosa PA14 = tested on: P. aeruginosa PA14
# In short: as §1
# S. epidermis = tested on: S. epidermis
# In short: as §1
# [1] = tested on: human red blood cells (hRBC); experiment: Minimum hemolytic concentration (MHC); assay type: cell-based
# Text: We also measured minimal hemolysis concentrations (MHC) on human red blood cells by serial 2-fold dilution as an indication of toxicity against eukaryotic cells (Table 1).
# E. cloacae = tested on: E. cloacae
# In short: as §1
# PA14 4.18 (pmrB) = tested on: PA14 4.18 (pmrB)
# In short: as §1
# PA14 2P4 (pmrB) = tested on: PA14 2P4 (pmrB)
# In short: as §1
# K. pneumoniae OXA-48 = tested on: K. pneumoniae OXA-48
# In short: as §1
# E. coli W3110 = tested on: E. coli W3110
# In short: as §1
# P. aeruginosa PAO1 = conditions: PAO1, 4 h
# In short: as §1
# PA14 4.13 (phoQ) = tested on: PA14 4.13 (phoQ)
# In short: as §1
# [2] = tested on: ZEM-1A (clinical MDR P. aeruginosa isolate); conditions: CSV
# In short: as §1
smiles,measurement,setting,value
"CC(C)C[C@H](NC(=O)[C@H](CC(C)C)NC(=O)[C@H](CC(C)C)NC(=O)[C@H](CCCCN)NC(=O)[C@H](CC(C)C)NC(=O)[C@H](CC(C)C)NC(=O)CN(CCCCN)C(=O)CN(CC(C)C)C(=O)CN(CC(C)C)C(=O)CN(CCCCN)C(=O)CNCCCCN)C(N)=O [EB5, kkllkLLKLLL] (H-[Nlys][Nlys][Nleu][Nleu][Nlys]LLKLLL-NH2)","MIC S. maltophilia, full MH at pH 7.4","S. maltophilia; 4 h, pH 7.4",8 ug/mL
same,MIC S. maltophilia,"S. maltophilia; 4 h, pH 8.5",4 to 8 µg/mL
same,MIC S. maltophilia,S. maltophilia; pH 7.4,8 µg/mL
same,"MIC S. aureus Newman, full MH at pH 7.4","S. aureus Newman; 4 h, pH 7.4",>32 ug/mL
same,MIC S. aureus Newman,"S. aureus Newman; 4 h, pH 8.5",2 µg/mL
same,MIC S. aureus Newman,S. aureus Newman; pH 7.4,>32 µg/mL
same,"MIC B. cenocepacia, full MH at pH 7.4",B. cenocepacia; 4 h,>32 ug/mL
same,MIC B. cenocepacia,B. cenocepacia,>32 µg/mL
same,"MIC P. aeruginosa PA14, full MH at pH 7.4","P. aeruginosa PA14; PA14, 4 h, pH 7.4",6 ug/mL
same,MIC P. aeruginosa PA14,"P. aeruginosa PA14; PA14, pH 7.4",4 to 8 µg/mL
same,MIC P. aeruginosa PA14,"P. aeruginosa PA14; PA14, pH 8.5",2 µg/mL
same,"MIC S. epidermis, full MH at pH 7.4","S. epidermis; 4 h, pH 7.4",6 ug/mL
same,MIC S. epidermis,"S. epidermis; 4 h, pH 8.5",2 µg/mL
same,MIC S. epidermis,S. epidermis; pH 7.4,4 to 8 µg/mL
same,MHC,[1],1000 µg/mL
same,MHC (hemolysis),[1]; red cells of human,250 to 1000 µg/mL
same,"MIC E. cloacae, full MH at pH 7.4","E. cloacae; 4 h, pH 7.4",12 ug/mL
same,MIC E. cloacae,"E. cloacae; 4 h, pH 8.5",4 µg/mL
same,MIC E. cloacae,E. cloacae; pH 7.4,8 to 16 µg/mL
same,"MIC P. aeruginosa PA14 4.18, […] MH at pH 8.5","PA14 4.18 (pmrB); CSV, […] MH at pH 8.5",2 ug/mL
same,"MIC P. aeruginosa PA14 4.18, full MH at pH 7.4","PA14 4.18 (pmrB); CSV, full MH at pH 7.4",32 ug/mL
same,MIC PA14 4.18 (pmrB),"PA14 4.18 (pmrB); MH pH 7.4, 16–20 h at 37 °C",32 µg/mL
same,MIC P. aeruginosa PA14 4.18,"PA14 4.18 (pmrB); Table S3, […] MH at pH 8.5",2 µg/mL
same,"MIC P. aeruginosa PA14 2P4, […] MH at pH 8.5","PA14 2P4 (pmrB); CSV, […] MH at pH 8.5",2 ug/mL
same,"MIC P. aeruginosa PA14 2P4, full MH at pH 7.4","PA14 2P4 (pmrB); CSV, full MH at pH 7.4",>32 ug/mL
same,MIC PA14 2P4 (pmrB),"PA14 2P4 (pmrB); MH pH 7.4, 16–20 h at 37 °C",>32 µg/mL
same,MIC P. aeruginosa PA14 2P4,"PA14 2P4 (pmrB); Table S3, […] MH at pH 8.5",2 µg/mL
same,"MIC K. pneumoniae OXA-48, […] MH at pH 8.5","K. pneumoniae OXA-48; CSV, […] MH at pH 8.5",8 ug/mL
same,"MIC K. pneumoniae OXA-48, full MH at pH 7.4","K. pneumoniae OXA-48; CSV, full MH at pH 7.4",>32 ug/mL
same,MIC K. pneumoniae OXA-48,"K. pneumoniae OXA-48; MH pH 7.4, 16–20 h at 37 °C",32 to 64 µg/mL
same,MIC K. pneumoniae OXA-48,"K. pneumoniae OXA-48; Table S3, […] MH at pH 8.5",8 µg/mL
same,"MIC E. coli W3110, […] MH at pH 7.4","E. coli W3110; CSV, […] MH at pH 7.4",2 ug/mL
same,"MIC E. coli W3110, […] MH at pH 8.5","E. coli W3110; CSV, […] MH at pH 8.5",2 ug/mL
same,"MIC E. coli W3110, full MH at pH 7.4","E. coli W3110; CSV, full MH at pH 7.4",2 ug/mL
same,"MIC E. coli W3110, full MH at pH 8.5","E. coli W3110; CSV, full MH at pH 8.5",>32 ug/mL
same,MIC E. coli W3110 […],"E. coli W3110; diluted MH ([…] MH, pH 8.5) per Table 1 footnote b, 16–20 h at 37 °C",2 µg/mL
same,"MIC P. aeruginosa PAO1, full MH at pH 7.4",P. aeruginosa PAO1; pH 7.4,4 ug/mL
same,"MIC P. aeruginosa PAO1, full MH at pH 8.5",P. aeruginosa PAO1; pH 8.5,>32 ug/mL
same,"MIC P. aeruginosa PA14 4.13, […] MH at pH 8.5","PA14 4.13 (phoQ); CSV, […] MH at pH 8.5",2 ug/mL
same,"MIC P. aeruginosa PA14 4.13, full MH at pH 7.4","PA14 4.13 (phoQ); CSV, full MH at pH 7.4",8 ug/mL
same,MIC PA14 4.13 (phoQ),"PA14 4.13 (phoQ); MH pH 7.4, 16–20 h at 37 °C",8 µg/mL
same,MIC P. aeruginosa PA14 4.13,"PA14 4.13 (phoQ); Table S3, […] MH at pH 8.5",2 µg/mL
same,"MIC P. aeruginosa ZEM-1A, […] MH at pH 8.5",[2]; […] MH at pH 8.5,2 ug/mL
same,"MIC P. aeruginosa ZEM-1A, full MH at pH 7.4",[2]; full MH at pH 7.4,2 ug/mL
